What was measured:
[1] = Inhibition of ABL T315I mutant in mouse BAF3 cells assessed as reduction in cell viability after 72 hrs by MTT assay
[2] = Inhibition of ABL in mouse BAF3 cells assessed as reduction in cell viability after 72 hrs by MTT assay

Row | SMILES | IC50 [1] [µM] | IC50 [2] [µM]
1 | COc1cc(N2CCN(C)CC2)ccc1Nc1ncc(Cl)c(Oc2cccc(NC(=O)/C=C/CN(C)C)c2)n1 | 6.02 | 7.02
2 | COc1cc(N2CCN(C)CC2)ccc1Nc1ncc(Cl)c(Oc2ccc(NC(C)=O)cc2)n1 | 2.89 | 2.08
3 | COc1cc(N2CCN(C)CC2)ccc1Nc1ncc(Cl)c(Oc2ccccc2[N+](=O)[O-])n1 | 11.6 | 6.81
4 | COc1cc(N2CCN(C)CC2)ccc1Nc1ncc(Cl)c(Oc2cccc(N=[N+]=[N-])c2)n1 | 4.67 | 3.87
5 | COc1cc(N2CCN(C)CC2)ccc1Nc1ncc(Cl)c(Oc2ccccc2N=C=S)n1 | 8.99 | 5.56
6 | COc1cc(N2CCN(C)CC2)ccc1Nc1ncc(Cl)c(Oc2cccc(NC(=O)COCc3ccccc3)c2)n1 | 2.87 | 2.44
7 | COc1cc(N2CCN(C)CC2)ccc1Nc1ncc(Cl)c(Oc2ccc([N+](=O)[O-])cc2)n1 | 6.89 | 3.48
8 | C=CC(=O)Nc1ccc(Oc2nc(Nc3ccc(N4CCN(C)CC4)cc3OC)ncc2Cl)cc1 | 7.7 | 6.39
9 | COc1cc(N2CCN(C)CC2)ccc1Nc1ncc(Cl)c(Oc2ccccc2NC(=O)/C=C/CN(C)C)n1 | 8.12 | 9.1
10 | COc1cc(N2CCN(C)CC2)ccc1Nc1ncc(Cl)c(Oc2ccc(N=[N+]=[N-])cc2)n1 | 15.1 | 13.1
11 | C=CC(=O)Nc1ccccc1Oc1nc(Nc2ccc(N3CCN(C)CC3)cc2OC)ncc1Cl | 2.37 | 2.92
12 | COc1cc(N2CCN(C)CC2)ccc1Nc1ncc(Cl)c(Oc2ccc(N)cc2)n1 | 5.47 | 2.81
13 | COc1cc(N2CCN(C)CC2)ccc1Nc1ncc(Cl)c(Oc2cccc(NC(=O)CO)c2)n1 | 1.12 | 1.48
14 | COc1cc(N2CCN(C)CC2)ccc1Nc1ncc(Cl)c(Oc2cccc(N=C=S)c2)n1 | 4.99 | 8.41
15 | COc1cc(N2CCN(C)CC2)ccc1Nc1ncc(Cl)c(Oc2ccccc2NC(=O)CCOCc2ccccc2)n1 | 3.06 | 3.12
16 | COc1cc(N2CCN(C)CC2)ccc1Nc1ncc(Cl)c(Oc2ccccc2N)n1 | 5.74 | 6.73
17 | COc1cc(N2CCN(C)CC2)ccc1Nc1ncc(Cl)c(Oc2ccc(NC(=O)/C=C/CN(C)C)cc2)n1 | 3.41 | 4.72

Row | SMILES | IC50 [1] [µM] | IC50 [2] [µM]
18 | COc1cc(N2CCN(C)CC2)ccc1Nc1ncc(Cl)c(Oc2cccc(NC(=O)CCO)c2)n1 | 1.39 | 2.07
19 | COc1cc(N2CCN(C)CC2)ccc1Nc1ncc(Cl)c(Oc2ccc(N=C=S)cc2)n1 | 9.53 | 7.5
20 | COc1cc(N2CCN(C)CC2)ccc1Nc1ncc(Cl)c(Oc2cccc([N+](=O)[O-])c2)n1 | 9.15 | 6.8
21 | COc1cc(N2CCN(C)CC2)ccc1Nc1ncc(Cl)c(Oc2ccccc2NC(C)=O)n1 | 4.73 | 8.49
22 | COc1cc(N2CCN(C)CC2)ccc1Nc1ncc(Cl)c(Oc2cccc(NC(C)=O)c2)n1 | 5.56 | 2.91
23 | COc1cc(N2CCN(C)CC2)ccc1Nc1ncc(Cl)c(Oc2cccc(NC(=O)CCOCc3ccccc3)c2)n1 | 2.49 | 2.47
24 | COc1cc(N2CCN(C)CC2)ccc1Nc1ncc(Cl)c(Oc2ccccc2NC(=O)COCc2ccccc2)n1 | 3.5 | 1.37
25 | COc1cc(N2CCN(C)CC2)ccc1Nc1ncc(Cl)c(Oc2ccc(NC(=O)COCc3ccccc3)cc2)n1 | 3.62 | 2.11
26 | COc1cc(N2CCN(C)CC2)ccc1Nc1ncc(Cl)c(Oc2ccc(NC(=O)CCO)cc2)n1 | 3.35 | 3.25
27 | C=CC(=O)Nc1cccc(Oc2nc(Nc3ccc(N4CCN(C)CC4)cc3OC)ncc2Cl)c1 | 16.3 | 9.69
28 | COc1cc(N2CCN(C)CC2)ccc1Nc1ncc(Cl)c(Oc2ccccc2NC(=O)CCO)n1 | 3.86 | 2.12
29 | COc1cc(N2CCN(C)CC2)ccc1Nc1ncc(Cl)c(Oc2cccc(N)c2)n1 | 1.96 | 1.9
30 | COc1cc(N2CCN(C)CC2)ccc1Nc1ncc(Cl)c(Oc2ccc(NC(=O)CO)cc2)n1 | 2.74 | 6.68
31 | COc1cc(N2CCN(C)CC2)ccc1Nc1ncc(Cl)c(Oc2ccc(NC(=O)CCOCc3ccccc3)cc2)n1 | 1.5 | 1.43
32 | COc1cc(N2CCN(C)CC2)ccc1Nc1ncc(Cl)c(Oc2ccccc2N=[N+]=[N-])n1 | 1.33 | 1.45
33 | COc1cc(N2CCN(C)CC2)ccc1Nc1ncc(Cl)c(Oc2ccccc2NC(=O)CO)n1 | 4.18 | 2.07

Reference: BindingDB's records for doi:10.1016/j.bmcl.2017.09.048 (St. John'S University, 2017)
